# From patent publication US20250026741A1, “INHIBITORS OF THE ONCOGENIC SHP2 PHOSPHATASE AND USES THEREOF” (Sanford Burnham Prebys Medical Discovery Institute, priority 2021, published 2025)
# Experiments:
# SHP2cat = SHP2cat (Homo sapiens (Human), UniProt Q06124); assay: Mass spectrometry test for inhibitor:protein adducts; settings: SHP2cat 5 μM, inhibitor 100 μM, 1, 5, 20, 60 min, trypsin proteolysis, MS
# Description: Additionally, we used mass spectrometry to test whether inhibitor: protein adducts are formed. Specifically, we incubated SHP2cat (5 μM) with #02 (100 μM) in assay buffer for various times (1, 5, 20, and 60 min) before trypsin proteolysis and subsequent mass spectrometry analysis.
# [1] = system: MOLM-13 AML cells (expressing WT SHP2); assay: Cell viability assay (CellTiter-Glo), MOLM-13; format: cell-based; settings: Homo sapiens, MOLM-13, 72 h, regular MOLM-13 cells, CRISPR comparison experiment
# Description: (§1) Next, we performed an 11-day colony formation assay with TNBC cells treated with #02 or SHP099 at 5, 10, or 20 μM (FIG. 3D).
# Finally, we evaluated the selectivity of our top two compounds, #01 and #02, on MOLM-13 AML cells in which SHP2 was depleted using CRISPR-Cas9 knock-out (KO). High-efficiency Cas9-editing MOLM-13 cells were generated by transducingMOLM-13 cells with a Cas9 lentiviral construct. Stable clones were tested for editing efficiency by performing TIDE analysis (45), and these MOLM13-Cas9 cells were transduced with a lentiviral construct containing an AAVS1 single guide RNA (sgRNA) and an mCherry reporter for bulk-sorting of cells with successful AAVS1 editing. […] Cells were treated with inhibitors at various concentrations (ranging from […] to 58 nM) or vehicle control (DMSO) for 72 h, before cell viability was assessed.
# Viability of AML, esophageal carcinoma, and TF-1 cells was assessed using the ATP-depletion assay CellTiter-Glo® (Promega). Cells were harvested at 1×10^6/mL to 2×10^6 cells/mL with cell numbers determined by trypan blue using the Countess Cell counter (Thermo Scientific) and resuspended in culture media. […] Luminescence was read on a Tecan Spark® Multimode Microplate Reader and data analyzed using Graph Pad Prism software. […]
# [2] = system: TNBC cells (BT-549 and MDA-MB-468); assay: 11-day colony formation assay; format: cell-based; settings: 5, 10, or 20 μM, 11 days
# Description: as §1
# MDA-MB-468 and […] triple-negative breast cancer cells were maintained in DMEM+10% FBS supplemented with 1× Penicillin-Streptomycin/L-Glutamine (Omega Scientific). 1.5K cells (in […]) were seeded per well of a standard 24-well tissue culture plate (Falcon) and allowed to adhere for 24 h, before the addition of drug(s) as described. After a further 96 h, media was replaced with fresh media containing the same test compounds and concentrations. After 11 days, media was removed and cells stained with 0.5% Crystal Violet (in 20% methanol) for 20 min with agitation @ 80 rpm. Stain was removed and plates with stained cells were washed by being submerged in excess deionized water and allowed to air dry overnight before imaging.
# SHP2cat, sequence (Q06124 248-527): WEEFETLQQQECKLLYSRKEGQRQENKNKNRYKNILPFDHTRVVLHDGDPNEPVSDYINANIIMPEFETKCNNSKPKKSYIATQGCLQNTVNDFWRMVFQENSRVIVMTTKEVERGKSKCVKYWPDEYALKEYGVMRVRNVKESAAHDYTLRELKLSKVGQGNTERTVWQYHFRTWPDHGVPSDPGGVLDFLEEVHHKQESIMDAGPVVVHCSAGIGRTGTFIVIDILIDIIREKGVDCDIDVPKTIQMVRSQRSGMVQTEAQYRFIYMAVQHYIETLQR
smiles,measurement,setting,value
"O=C(Nc1ccccc1)c1cc(-c2ccc(/C=C3\Sc4ccccc4C3=O)o2)ccc1O [#02, (Z)-2-hydroxy-5-(5-((3-oxobenzo[b]thiophen-2(3H)-ylidene)methyl)furan-2-yl)-N-phenylbenzamide]",inhibitor:protein adduct formation,SHP2cat,no adduct formation with the inhibitor was found
same,IC50,[1],15 µM
same,effect on colony formation,[2],colonies were undetectable
